This note sets out measurements from patent publication US11352320B2 (Merck Sharp & Dohme Corp., priority 2018, dated 2022).

Test [1] deals with T1, IDO1 (Homo sapiens, UniProt P14902). Kind of test: IDO1 Cellular Assay in Hela Cells Stimulated with IFNγ. The format is cell-based. Also on record: endogenous in cells; host or cells: HeLa cells stimulated with IFNγ. The following applies: IFNγ 100 ng/mL, 300 uM L-tryptophan, about 48 hours, fluorescence readout, read-out: IDO1 HELA Cell Assay, IC50. The method, then: Biological Assays IDO1 Cellular Assay in Hela Cells Stimulated with IFNγ
T1 sequence (P14902 whole entry): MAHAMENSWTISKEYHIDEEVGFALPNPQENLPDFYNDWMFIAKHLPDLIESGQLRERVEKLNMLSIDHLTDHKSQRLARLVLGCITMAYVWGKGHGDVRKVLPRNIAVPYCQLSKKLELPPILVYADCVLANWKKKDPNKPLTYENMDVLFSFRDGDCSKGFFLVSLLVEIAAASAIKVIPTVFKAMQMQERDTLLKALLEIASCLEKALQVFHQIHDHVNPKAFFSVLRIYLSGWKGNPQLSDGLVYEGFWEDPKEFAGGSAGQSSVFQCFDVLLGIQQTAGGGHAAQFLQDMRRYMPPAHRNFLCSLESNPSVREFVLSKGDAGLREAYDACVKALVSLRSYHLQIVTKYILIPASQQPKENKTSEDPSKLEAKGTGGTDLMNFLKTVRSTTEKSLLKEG
Hela cells were cultured in complete Hela culture medium (90% EMEM, 10% heat-inactivated fetal bovine serum) and expanded to about 1×10^9 cells. The cells were then collected and frozen down at 1×10^7 cells/vial in 1 mL frozen medium (90% complete Hela culture medium, 10% DMSO)
Compounds to be tested were serially diluted in ten 3-fold steps in DMSO starting from 10 mM DMSO stocks in Echo low volume plate(s). Compound dilutions or DMSO alone were then dispensed from the dilution plate(s) into Greiner black 384-well assay plate(s) (catalog #781086, 50 nL/well) using an Echo 550 acoustic liquid handler (Labcyte).
Frozen Hela cells were thawed and transferred into Hela assay medium (99% complete Hela culture medium, 1% Pen/Strep) with 20 mL medium/vial of cells. The cells were spun down at 250 g in a table top centrifuge for 5 min and suspended in same volume of Hela assay medium. The cells were then counted and adjusted to a density of 2×10^5 cells/ml in Hela assay medium. Sterile L-tryptophan were added to the cells with final concentration of 300 uM L-tryptophan. A small aliquot (2 mL/plate) of Hela cells were set aside and were not treated with IFNγ, to serve as the Max-E control. The rest of Hela cells were added with sterile IFNγ (Cat #285-IF, R & D systems) with a final concentration of 100 ng/mL.
Hela cells with and without IFNγ were dispensed to the respective wells of 384-well assay plates containing the compounds. The plates were incubated for about 48 hours at a 37° C., 5% CO2 incubator. Afterwards, 12 μL of 0.5 M methyl isonipecotate in dimethyl sulfoxide were added into each well and the plates were sealed and incubated at 37° C. without CO2 overnight. The plates were centrifuged for 1 min at 200×g. The resulting fluorescence was measured in a Spectramax plate reader (Molecular Devices) with a 400 nm excitation filter and a 510 nm emission filter.
The fluorescence intensity of each well was corrected for the background observed in wells with non-IFNγ-treated cells and was expressed as a fraction of the intensity observed in wells of IFNγ-treated cells and DMSO only. Potencies were calculated by linear least squares fit to the four parameter logistic IC50 equation.
Compounds disclosed herein generally have IC50 of about 1 nM to about 1,000 nM, or more specifically, about 2 nM to about 800 nM, or more specifically, about 5 nM to about 600 nM, or still more specifically, about 10 nM to about 500 nM. Such a result is indicative of the intrinsic activity of the compounds in use as an inhibitor of an IDO enzyme.

In test [2] the target is T1, IDO1. Kind of test: IDO1 Human Whole Blood Assay. The format is cell-based. The note with it: LPS and IFNγ 100 ng/mL, 18 h, kynurenine by LC/MS/MS. The method, then:
IDO1 Human Whole Blood Assay
Compounds to be tested were serially diluted in ten 3-fold steps in DMSO starting from 10 mM. 3 μL of compound dilutions or DMSO alone were then dispensed from the dilution plate into a polypropylene 96-well assay plate containing 97 μL of RPMI medium using an Echo 555 acoustic liquid handler (Labcyte). LPS and IFNγ was prepared in RPMI medium to a 10× of final conc. (1000 ng/mL), final concentration is 100 ng/mL.
Two hundred forty μL of blood was transferred to each of the wells of a v-bottom 96 well plate. Thirty μL of compound was transferred from intermediate dilution plate, and incubated for 15 min. Thirty μL from stimulants was then transferred to blood and mixed thoroughly. Plate was covered with breathable membrane and incubated at 37° C. for overnight (18 h).
On day 2 isotope labeled standard of kynurenine and tryptophan was made in water at 10× concentration and 30 μL was added to the blood at 3 μM final concentration. The assay plates were centrifuged at 300×G for 10 min with no brake to separate plasma from red blood cells. Sixty μL of plasma samples was removed without disturbing red blood cells. Plasma was diluted with RPMI in 1:1 ratio and proteins were precipitated out with two volume of acetonitrile. The plates were centrifuged at 4000×G for 60 min. Twenty μL of supernatant was carefully transferred to a 384 well plate containing 40 μL of 0.1% formic acid in water and analyzed by LC/MS/MS.
LC/MS/MS analyses were performed using Thermo Fisher's LX4-TSQ Quantum Ultra system. This system consists of four Agilent binary high-performance liquid chromatography (HPLC) pumps and a TSQ Quantum Ultra triple quadruple MS/MS instrument. For each sample, 5 μL were injected onto an Atlantis T3 column (2.1 mm×150 mm, 3 μm particle size) from Waters. The mobile phase gradient pumped at 0.8 mL/min was used to elute the analytes from the column at 25° C. […] Compounds were titrated and IC50's were calculated by 4 parameter sigmoidal curve fitting formula. […]

Structures can show the parent of a compound that is named as a salt.

The term IC50 denotes the concentration that inhibits the measured activity by half. As for `CC(C(=O)Nc1ccc(F)cc1)C12CC(Nc3ncnc4ccccc34)(C1)C2` (single isomer, unassigned) [Example 5, N-(4-fluorophenyl)-2-(3-(quinazolin-4-ylamino)bicyclo[1.1.1]pentan-1-yl)propanamide], the IC50 at IDO1 [1] is 5.38 nM; against IDO1 [2], 543 nM.

For the compound `CC(C(=O)Nc1ccc(F)cc1)C12CC(Nc3ncnc4ccc(F)cc34)(C1)C2` (single isomer, unassigned) [Example 11, N-(4-fluorophenyl)-2-(3-((6-fluoroquinazolin-4-yl)amino)bicyclo[1.1.1]pentan-1-yl)propanamide], the IC50 at IDO1 [1] is 3.23 nM; at IDO1 [2] it was 378 nM.

Regarding `C[C@H](C(=O)Nc1ccc(F)cc1)C12CC(N(C)Cc3cccc(Cl)c3)(C1)C2` [Example 29, (S)-2-(3-((3-chlorobenzyl)(methyl)amino)bicyclo[1.1.1]pentan-1-yl)-N-(4-fluorophenyl)propanamide, TFA], the IC50 at IDO1 [1] was determined as 5.6 nM; at IDO1 [2], 625 nM.

Consider `C[C@H](C(=O)Nc1ccc(F)cc1)C12CC(NCc3ccc(Cl)c(Cl)c3)(C1)C2` [Example 32, (S)-2-(3-((3,4-dichlorobenzyl)amino)bicyclo[1.1.1]pentan-1-yl)-N-(4-fluorophenyl)propanamide, TFA], for which the IC50 at IDO1 [1] was found to be 51.3 nM.

As to `C[C@H](C(=O)Nc1ccc(F)cc1)C12CC(N(C)Cc3ccc(Cl)c(Cl)c3)(C1)C2` [Example 33, (S)-2-(3-((3,4-dichlorobenzyl)(methyl)amino)bicyclo[1.1.1]pentan-1-yl)-N-(4-fluorophenyl)propanamide, TFA], on IDO1 [1], the IC50 amounted to 8.86 nM.
